Measurements from US9249129B2, “Morpholino substituted urea derivatives as mTOR inhibitors” (CELLZOME LIMITED, priority 2010, dated 2016).
Read-outs that look alike come from different tables or passages of the source.

How the values were obtained:
mTOR = molecular target: T1, mTOR (Homo sapiens, UniProt P42345); assay: mTOR kinobeads assay (dot blot detection); format: binding
T1 construct: endogenous in cells; host or cells: Jurkat cells (ATCC TIB-152, clone E6-1), lysate
Experimental: (§1) The compounds of the present invention as described were tested in the mTOR kinobeads assay as described below. Briefly, test compounds (at various concentrations) and the affinity matrix (1:1 mixture of beads with immobilized phenylthiazole ligand 1 and beads with immobilized phenylmorpholin-chromen ligand; WO 2009/098021) were added to cell lysate aliquots and allowed to bind to the proteins in the lysate sample. After the incubation time the beads with captured proteins were separated from the lysate. Bound proteins were then eluted and the presence of mTOR, PI3K delta (PI3 Kd) and DNA-dependent protein kinase (DNA-PK) was detected and quantified using a specific antibody in a dot blot procedure and the Odyssey infrared detection system. Dose response curves for individual kinases were generated and IC50 values calculated. Kinobeads assays for PI3 kinases (WO-A 2008/015013) and for kinase selectivity profiling (WO 2009/098021) have been previously described.
(§2) The affinity matrix (beads with immobilized phenylmorpholin-chromen ligand) was washed two times with 15 ml of 1×DP buffer containing 0.2% NP40 (IGEPAL® CA-630, Sigma, #13021) and then resupended in 5.5 ml of 1×DP buffer containing 0.2% NP40 (10% beads slurry).
(§3) 5×DP buffer: 250 mM Tris-HCl pH 7.4, 25% Glycerol, 7.5 mM MgCl2, 750 mM NaCl, 5 mM Na3VO4, filter the 5×-lysis buffer through 0.22 μm filter and store in aliquots at −80° C. The 5×DP buffer is diluted to 1×DP buffer containing 1 mM DTT and 25 mM NaF.
(§4) Stock solutions of test compounds were prepared in DMSO. In a 96 well plate 30 μl solution of diluted test compounds at 5 mM in DMSO were prepared. Starting with this solution a 1:3 dilution series (9 steps) was prepared. For control experiments (no test compound) a buffer containing 2% DMSO was used. Compound CZC00018052 served as a positive control (PI-103; Calbiochem catalogue number 528100).
(§5) Jurkat cells (ATCC catalogue number TIB-152 Jurkat, clone E6-1) were grown in 1 litre Spinner flasks (Integra Biosciences, #182101) in suspension in RPMI 1640 medium (Invitrogen, #21875-034) supplemented with 10% Fetal Bovine Serum (Invitrogen) at a density between 0.15×10^6 and 1.2×10^6 cells/ml. Cells were harvested by centrifugation, washed once with 1×PBS buffer (Invitrogen, #14190-094) and cell pellets were frozen in liquid nitrogen and subsequently stored at −80° C.
(§6) Jurkat cells were homogenized in a Potter S homogenizer in lysis buffer: 50 mM Tris-HCl, 0.8% NP40, 5% glycerol, 150 mM NaCl, 1.5 mM MgCl2, 25 mM NaF, 1 mM sodium vanadate, 1 mM DTT, pH 7.5. One complete EDTA-free tablet (protease inhibitor cocktail, Roche Diagnostics, 1873580) per 25 ml buffer was added. The material was dounced 10 times using a mechanized POTTER S, transferred to 50 ml falcon tubes, incubated for 30 minutes on ice and spun down for 10 min at 20,000 g at 4° C. (10,000 rpm in Sorvall SLA600, precooled). The supernatant was transferred to an ultracentrifuge (UZ)-polycarbonate tube (Beckmann, 355654) and spun for 1 hour at 100.000 g at 4° C. (33.500 rpm in Ti50.2, precooled). The supernatant was transferred again to a fresh 50 ml falcon tube, the protein concentration was determined by a Bradford assay (BioRad) and samples containing 50 mg of protein per aliquot were prepared. The samples were immediately used for experiments or frozen in liquid nitrogen and stored frozen at −80° C.
(§7) Jurkat cell lysate (approximately 50 mg protein per plate) was thawed in a water bath at room temperature and then kept on ice. To the thawed cell lysate 1×DP 0.8% NP40 buffer containing protease inhibitors (1 tablet for 25 ml buffer; EDTA-free protease inhibitor cocktail; Roche Diagnostics 1873580) was added in order to reach a final protein concentration of 5 mg/ml total protein. The diluted cell lysate was stored on ice. […]

[1] = system: S6RP serine-240/244 phosphorylation in HEK293T/17 cells; assay: In vitro phospho-S6 cellular assay (pS6RP S240/244); format: cell-based; conditions: Homo sapiens, Table 6, 2 hours, S6RP Ser240/244, read-out: pS6 (phospho-S6 cell assay data, activity level)
Description: In Vitro Phospho-S6 and Phospho-Akt Cellular Assay
Activation of mTOR signaling results in phosphorylation of several downstream targets. In cells, mTOR exists in two different protein complexes. The mTOR Complex-1 (mTORC1) phosphorylates and activates S6 Kinase 1 (S6K1) and S6 Kinase 2 (S6K2) (also known as p70S6K) which then phosphorylate S6 Ribosomal Protein (S6RP) (also known as RPS6). S6RP is phosphorylated on serine 235, serine 236, serine 240 and serine 244 by both pS6K1 and pS6K2. The mTOR Complex-2 (mTORC2) phosphorylates AKT on serine 473 which activates the AKT signaling pathway.
The assay measures a test compound's inhibition of S6RP serine-240/244 phosphorylation and inhibition of Akt serine-473 phosphorylation in human embryonic kidney derived HEK293T/17 cells (ATCC CRL-11268).
The HEK293T/17 cell line is maintained in DMEM media (Invitrogen catalogue number 41965-039) supplemented with 10% FCS at 37° C. in a 5% CO2 humidified incubator.
Cells are seeded in 96-well plates at 40,000 cells/well (pS6RP S240/244 assay) or 80,000 cells/well (pAkt 5473 assay) in 90 μl growth media (DMEM, 2% FCS). Plates are incubated for 1 hour in a humidified incubator to allow the cells to adhere. Cells are treated with 8 concentrations of test compounds or DMSO alone for controls (final DMSO concentration 0.1%) and incubated at 37° C. for 2 hours. Then 20 μl of 5× concentrated lysis buffer (750 mM NaCl, 100 mM Tris pH7.4, 5 mM EDTA, 5 mM EGTA, 5% Triton X-100) is added, plates are sealed and incubated for 15 minutes at 4° C. with gentle shaking. After cell lysis, 25 μl cell lysate is transferred to a MesoScale plate coated with an antibody to pS6RP Ser240/244 (MesoScale Discovery K150DGD-3) or an antibody to pAkt Ser 473 (MesoScale Discovery K151DGD-3). Plates have been blocked before by incubation with 150 μl MesoScale Discovery Blocking Solution-A for 1 hour at room temperature followed by washing with 150 μl 1× Tris wash buffer per well. After the transfer of the cell lysate to the MSD plate, the pS6RP (or pAkt) protein is captured on the coated antibody by incubation at room temperature for 1 hour with gentle shaking. After the capture step the plate is washed three times with 150 μl of 1× Tris wash buffer per well. Then 25 μl detection antibody conjugated with a Sulfo-Tag is added and incubated for 1 hour at room temperature with gentle shaking. Subsequently the antibody solution is removed and the plate is washed 3 times with 150 μl 1× Tris wash buffer per well and 150 μl Read buffer is added. The plates are analysed on a MSD 2400 Plate Reader (MesoScale Discovery). Data analysis is performed using nonlinear regression for a sigmoidal dose-response with a variable slope.

PI3Kβ = molecular target: T2, PI3Kβ (Homo sapiens, UniProt P42338); assay: kinobeads assay, PI3K beta (dot blot detection); format: binding; conditions: Table 4, read-out: Inhibition values (IC50) PI3Kb
T2 construct: endogenous in cells; host or cells: Jurkat cells (ATCC TIB-152) lysate, the only lysate described

PI3Kγ = molecular target: T3, PI3Kγ (Homo sapiens, UniProt P48736); assay: kinobeads assay, PI3K gamma (dot blot detection); format: binding; conditions: Table 4, read-out: Inhibition values (IC50) PI3Kg
T3 construct: endogenous in cells; host or cells: Jurkat cells (ATCC TIB-152) lysate, the only lysate described

PI3Kα = molecular target: T4, PI3Kα (Homo sapiens, UniProt P42336); assay: kinobeads assay, PI3K alpha (dot blot detection); format: binding; conditions: Table 4, read-out: Inhibition values (IC50) PI3Ka
T4 construct: endogenous in cells; host or cells: Jurkat cells (ATCC TIB-152) lysate, the only lysate described

PI3K delta (PI3Kd) = molecular target: T5, PI3K delta (PI3Kd) (Homo sapiens, UniProt O00329); assay: kinobeads assay, PI3K delta (dot blot detection); format: binding
T5 construct: endogenous in cells; host or cells: Jurkat cells (ATCC TIB-152, clone E6-1), lysate
Experimental: as §1, §2, §3, §4, §5, §6, §7

[2] = molecular target: T6, DNA-dependent protein kinase (DNA-PK) (Homo sapiens, UniProt P78527); assay: kinobeads assay, DNA-PK (dot blot detection); format: binding
T6 construct: endogenous in cells; host or cells: Jurkat cells (ATCC TIB-152, clone E6-1), lysate
Experimental: as §1, §2, §3, §4, §5, §6, §7

[3] = Table 2, Jurkat cell lysate, read-out: Inhibition values (IC50) mTor
[4] = Table 4, read-out: Inhibition values (IC50) mTOR
[5] = Table 2, Jurkat cell lysate, read-out: Inhibition values (IC50) PI3Kd
[6] = Table 4, read-out: Inhibition values (IC50) PI3Kd
[7] = Table 2, Jurkat cell lysate, read-out: Inhibition values (IC50) DNAPK
[8] = Table 4, read-out: Inhibition values (IC50) DNAPK

T3 sequence (P48736 whole entry): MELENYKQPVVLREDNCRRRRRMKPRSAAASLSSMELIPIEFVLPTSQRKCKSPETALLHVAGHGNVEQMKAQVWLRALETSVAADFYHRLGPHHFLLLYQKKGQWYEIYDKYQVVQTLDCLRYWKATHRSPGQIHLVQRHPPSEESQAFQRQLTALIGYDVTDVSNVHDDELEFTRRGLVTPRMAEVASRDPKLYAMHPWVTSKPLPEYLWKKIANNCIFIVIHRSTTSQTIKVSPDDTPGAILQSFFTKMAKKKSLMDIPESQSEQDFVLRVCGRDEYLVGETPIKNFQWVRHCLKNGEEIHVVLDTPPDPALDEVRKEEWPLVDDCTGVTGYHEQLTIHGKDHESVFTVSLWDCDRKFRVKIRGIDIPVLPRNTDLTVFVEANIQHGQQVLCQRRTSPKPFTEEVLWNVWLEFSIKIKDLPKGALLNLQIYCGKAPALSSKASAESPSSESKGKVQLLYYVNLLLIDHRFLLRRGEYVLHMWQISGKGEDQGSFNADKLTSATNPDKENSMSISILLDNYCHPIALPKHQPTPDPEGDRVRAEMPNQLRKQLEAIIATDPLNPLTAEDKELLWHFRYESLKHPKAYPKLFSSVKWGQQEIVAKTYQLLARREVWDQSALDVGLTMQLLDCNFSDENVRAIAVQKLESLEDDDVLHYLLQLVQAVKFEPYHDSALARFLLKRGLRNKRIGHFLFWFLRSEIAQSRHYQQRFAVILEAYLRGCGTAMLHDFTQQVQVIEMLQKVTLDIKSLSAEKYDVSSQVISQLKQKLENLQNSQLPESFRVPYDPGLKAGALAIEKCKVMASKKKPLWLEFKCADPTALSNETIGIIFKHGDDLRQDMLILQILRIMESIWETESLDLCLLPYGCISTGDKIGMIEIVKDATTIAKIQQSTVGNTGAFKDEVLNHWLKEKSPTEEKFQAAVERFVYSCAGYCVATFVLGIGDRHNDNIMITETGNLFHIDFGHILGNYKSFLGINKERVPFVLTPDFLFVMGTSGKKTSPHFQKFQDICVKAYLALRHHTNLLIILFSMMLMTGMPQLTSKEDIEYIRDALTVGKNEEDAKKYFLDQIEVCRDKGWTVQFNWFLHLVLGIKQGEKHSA
T5 sequence (O00329 whole entry): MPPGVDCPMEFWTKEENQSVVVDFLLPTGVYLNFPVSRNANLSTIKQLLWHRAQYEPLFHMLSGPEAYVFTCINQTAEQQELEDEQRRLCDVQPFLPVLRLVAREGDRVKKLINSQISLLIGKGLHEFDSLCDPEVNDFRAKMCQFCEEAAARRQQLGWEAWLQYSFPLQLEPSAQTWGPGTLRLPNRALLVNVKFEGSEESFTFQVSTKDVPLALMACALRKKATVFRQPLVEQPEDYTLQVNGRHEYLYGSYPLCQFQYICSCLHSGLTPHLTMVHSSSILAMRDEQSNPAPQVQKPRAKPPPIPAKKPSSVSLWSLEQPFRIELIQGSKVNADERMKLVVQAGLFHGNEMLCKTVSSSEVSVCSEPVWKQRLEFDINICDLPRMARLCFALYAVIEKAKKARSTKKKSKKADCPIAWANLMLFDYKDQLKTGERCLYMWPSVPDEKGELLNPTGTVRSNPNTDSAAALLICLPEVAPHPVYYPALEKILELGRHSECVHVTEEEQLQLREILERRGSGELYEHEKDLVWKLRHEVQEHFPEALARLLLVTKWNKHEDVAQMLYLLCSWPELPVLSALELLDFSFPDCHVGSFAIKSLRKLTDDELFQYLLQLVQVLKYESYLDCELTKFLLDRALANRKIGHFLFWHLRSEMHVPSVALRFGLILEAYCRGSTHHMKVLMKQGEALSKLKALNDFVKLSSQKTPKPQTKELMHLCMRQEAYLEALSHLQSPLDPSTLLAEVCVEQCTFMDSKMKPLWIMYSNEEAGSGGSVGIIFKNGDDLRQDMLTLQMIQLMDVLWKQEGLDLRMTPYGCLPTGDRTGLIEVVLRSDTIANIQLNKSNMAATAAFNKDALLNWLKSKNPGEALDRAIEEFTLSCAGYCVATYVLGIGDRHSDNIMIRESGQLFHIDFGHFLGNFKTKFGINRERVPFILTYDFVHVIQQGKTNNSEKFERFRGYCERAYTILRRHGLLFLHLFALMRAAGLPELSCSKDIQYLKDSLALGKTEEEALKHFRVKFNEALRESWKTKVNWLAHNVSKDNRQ
T5 sequence (P27986 whole entry partner): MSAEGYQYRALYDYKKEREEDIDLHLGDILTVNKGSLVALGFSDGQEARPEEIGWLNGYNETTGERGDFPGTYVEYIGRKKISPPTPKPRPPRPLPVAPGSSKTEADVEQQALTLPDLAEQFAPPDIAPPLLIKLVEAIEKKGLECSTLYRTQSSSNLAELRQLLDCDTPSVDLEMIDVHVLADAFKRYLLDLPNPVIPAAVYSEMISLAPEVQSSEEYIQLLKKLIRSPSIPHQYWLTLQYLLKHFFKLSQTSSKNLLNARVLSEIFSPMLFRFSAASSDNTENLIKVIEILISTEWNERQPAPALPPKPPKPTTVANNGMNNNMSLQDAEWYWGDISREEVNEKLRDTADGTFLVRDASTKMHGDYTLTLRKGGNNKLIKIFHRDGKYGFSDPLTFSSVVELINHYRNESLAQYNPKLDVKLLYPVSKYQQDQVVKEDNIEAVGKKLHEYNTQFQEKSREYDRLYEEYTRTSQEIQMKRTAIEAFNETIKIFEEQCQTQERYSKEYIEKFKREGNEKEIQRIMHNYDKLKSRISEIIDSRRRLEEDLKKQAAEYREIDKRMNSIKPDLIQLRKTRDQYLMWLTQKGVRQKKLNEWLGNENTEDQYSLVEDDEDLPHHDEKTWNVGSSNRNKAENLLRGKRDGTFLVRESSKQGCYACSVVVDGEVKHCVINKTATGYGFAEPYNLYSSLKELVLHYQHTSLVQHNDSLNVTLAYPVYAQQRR
T2 sequence (P42338 whole entry): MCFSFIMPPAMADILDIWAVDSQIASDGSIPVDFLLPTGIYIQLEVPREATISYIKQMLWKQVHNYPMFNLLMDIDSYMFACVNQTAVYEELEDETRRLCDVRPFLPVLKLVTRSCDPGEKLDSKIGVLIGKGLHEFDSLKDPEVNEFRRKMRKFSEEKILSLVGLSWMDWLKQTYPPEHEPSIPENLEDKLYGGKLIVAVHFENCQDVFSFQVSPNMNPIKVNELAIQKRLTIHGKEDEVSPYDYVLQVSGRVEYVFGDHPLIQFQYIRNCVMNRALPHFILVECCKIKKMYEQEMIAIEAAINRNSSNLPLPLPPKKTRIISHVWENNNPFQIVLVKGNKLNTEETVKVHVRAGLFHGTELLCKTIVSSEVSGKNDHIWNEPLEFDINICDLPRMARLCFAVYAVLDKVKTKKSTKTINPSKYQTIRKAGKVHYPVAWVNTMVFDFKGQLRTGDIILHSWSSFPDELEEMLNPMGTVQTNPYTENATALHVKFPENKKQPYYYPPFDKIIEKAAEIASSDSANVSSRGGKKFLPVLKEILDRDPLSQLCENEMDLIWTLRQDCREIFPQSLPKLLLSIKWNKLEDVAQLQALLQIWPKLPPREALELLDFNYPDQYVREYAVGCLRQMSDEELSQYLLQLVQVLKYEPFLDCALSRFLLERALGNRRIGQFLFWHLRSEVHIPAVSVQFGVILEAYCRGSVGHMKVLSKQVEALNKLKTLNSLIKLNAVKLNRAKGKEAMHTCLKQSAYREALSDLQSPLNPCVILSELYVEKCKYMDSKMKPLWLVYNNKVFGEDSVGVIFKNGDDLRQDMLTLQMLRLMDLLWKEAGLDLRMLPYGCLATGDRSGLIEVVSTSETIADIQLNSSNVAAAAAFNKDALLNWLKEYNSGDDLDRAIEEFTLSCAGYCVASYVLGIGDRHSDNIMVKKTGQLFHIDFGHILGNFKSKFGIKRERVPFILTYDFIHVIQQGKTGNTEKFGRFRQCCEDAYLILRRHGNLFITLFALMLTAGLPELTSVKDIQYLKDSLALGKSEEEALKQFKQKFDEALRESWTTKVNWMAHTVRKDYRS
T2 sequence (P27986 whole entry partner): as the sequence (P27986 whole entry partner) above
T4 sequence (P42336 whole entry): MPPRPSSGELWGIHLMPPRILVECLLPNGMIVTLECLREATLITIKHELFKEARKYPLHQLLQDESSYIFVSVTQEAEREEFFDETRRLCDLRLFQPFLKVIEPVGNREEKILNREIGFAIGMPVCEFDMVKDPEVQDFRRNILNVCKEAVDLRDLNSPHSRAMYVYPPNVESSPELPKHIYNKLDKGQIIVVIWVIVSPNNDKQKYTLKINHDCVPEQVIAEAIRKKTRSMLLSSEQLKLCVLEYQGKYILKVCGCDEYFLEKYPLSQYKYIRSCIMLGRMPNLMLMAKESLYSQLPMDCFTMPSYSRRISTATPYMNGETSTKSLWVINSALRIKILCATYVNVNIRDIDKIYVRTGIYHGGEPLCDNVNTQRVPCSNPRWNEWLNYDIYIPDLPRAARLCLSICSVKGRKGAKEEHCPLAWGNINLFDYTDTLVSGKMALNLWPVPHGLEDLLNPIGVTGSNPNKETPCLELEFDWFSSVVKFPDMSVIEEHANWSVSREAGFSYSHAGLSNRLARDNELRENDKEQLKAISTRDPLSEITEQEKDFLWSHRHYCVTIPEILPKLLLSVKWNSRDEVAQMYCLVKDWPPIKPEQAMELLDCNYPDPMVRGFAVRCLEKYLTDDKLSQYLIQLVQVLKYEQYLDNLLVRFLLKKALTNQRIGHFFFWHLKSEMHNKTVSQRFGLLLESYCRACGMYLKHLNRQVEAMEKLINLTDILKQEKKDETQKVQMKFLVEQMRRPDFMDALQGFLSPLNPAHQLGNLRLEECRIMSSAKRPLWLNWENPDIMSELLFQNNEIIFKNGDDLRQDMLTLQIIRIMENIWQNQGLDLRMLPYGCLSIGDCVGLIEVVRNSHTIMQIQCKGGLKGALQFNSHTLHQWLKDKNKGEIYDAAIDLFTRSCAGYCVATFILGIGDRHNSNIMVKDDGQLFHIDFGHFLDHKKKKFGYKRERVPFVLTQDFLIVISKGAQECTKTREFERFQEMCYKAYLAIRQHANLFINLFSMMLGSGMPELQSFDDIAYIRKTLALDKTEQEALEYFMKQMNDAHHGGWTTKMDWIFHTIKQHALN
T4 sequence (P27986 whole entry partner): as the sequence (P27986 whole entry partner) above

Structure (SMILES)	IC50 (mTOR; [3])	IC50 (mTOR; [4])	IC50 [1]	IC50 (PI3Kβ)	IC50 (PI3Kγ)	IC50 (PI3Kα)	IC50 (PI3K delta (PI3Kd); [5])	IC50 (PI3K delta (PI3Kd); [6])	IC50 [2, 7]	IC50 [2, 8]
C[C@H]1COCCN1c1cc(-c2cccnc2)nc(-c2ccc(NC(=O)NC3CC3)cc2)n1 [Example 3, (S)-1-cyclopropyl-3-(4-(4-(3-methylmorpholino)-6-(pyridin-3-yl)pyrimidin-2-yl)phenyl)urea]	0.1 to 1 µM	0.1 to 1 µM	< 0.1 µM	≥ 10 µM	≥ 10 µM	≥ 10 µM	≥ 10 µM	≥ 10 µM	≥ 10 µM	≥ 10 µM
C[C@H]1COCCN1c1nc(-c2ccc(NC(=O)NC3CC3)cc2)cc(-c2cccnc2)n1 [Example 7, (S)-1-cyclopropyl-3-(4-(2-(3-methylmorpholino)-6-(pyridin-3-yl)pyrimidin-4-yl)phenyl)]	1 to 10 µM	1 to 10 µM	0.1 to 1 µM	≥ 10 µM	≥ 10 µM	≥ 10 µM	≥ 10 µM	≥ 10 µM	≥ 10 µM	≥ 10 µM
CCNC(=O)Nc1ccc(-c2cc(-c3ccccc3S(=O)(=O)N(C)C)nc(N3CCOC[C@@H]3C)n2)cc1 [Example 14, (S)-2-(6-(4-(3-ethylureido)phenyl)-2-(3-methylmorpholino)pyrimidin-4-yl)-N,N-dimethylbenzenesulfonamide]	0.1 to 1 µM	0.1 to 1 µM	0.1 to 1 µM	≥ 10 µM	≥ 10 µM	≥ 10 µM	≥ 10 µM	≥ 10 µM	≥ 10 µM	≥ 10 µM
CCNC(=O)Nc1ccc(-c2cc(-c3cncc(S(C)(=O)=O)c3)nc(N3CCOC[C@@H]3C)n2)cc1 [Example 15, (S)-1-ethyl-3-(4-(2-(3-methylmorpholino)-6-(5-(methylsulfonyl)pyridin-3-yl)pyrimidin-4-yl)phenyl)urea]	1 to 10 µM	1 to 10 µM	0.1 to 1 µM	≥ 10 µM	≥ 10 µM	≥ 10 µM	≥ 10 µM	≥ 10 µM	≥ 10 µM	≥ 10 µM
C[C@H]1COCCN1c1cc(-c2cncc(S(C)(=O)=O)c2)nc(-c2ccc(NC(=O)NC3CC3)cc2)n1 [Example 22, (S)-1-cyclopropyl-3-(4-(4-(3-methylmorpholino)-6-(5-(methylsulfonyl)pyridin-3-yl)pyrimidin-2-yl)phenyl)urea]	1 to 10 µM	1 to 10 µM	0.1 to 1 µM				≥ 10 µM	≥ 10 µM	≥ 10 µM	≥ 10 µM
C[C@H]1COCCN1c1cc(-c2ccncc2F)nc(-c2ccc(NC(=O)NC3CC3)cc2)n1 [Example 24, (S)-1-cyclopropyl-3-(4-(4-(3-fluoropyridin-4-yl)-6-(3-methylmorpholino)pyrimidin-2-yl)phenyl)urea]	0.1 to 1 µM	0.1 to 1 µM	0.1 to 1 µM	≥ 10 µM	≥ 10 µM	≥ 10 µM	≥ 10 µM	≥ 10 µM	≥ 10 µM	≥ 10 µM
C[C@H]1COCCN1c1cc(-c2ccncc2)nc(-c2ccc(NC(=O)NC3CC3)cc2)n1 [Example 25, (S)-1-cyclopropyl-3-(4-(4-(3-methylmorpholino)-6-(pyridin-4-yl)pyrimidin-2-yl)phenyl)urea]	0.1 to 1 µM	0.1 to 1 µM	0.1 to 1 µM	≥ 10 µM	≥ 10 µM	≥ 10 µM	≥ 10 µM	≥ 10 µM	≥ 10 µM	≥ 10 µM
CNC(=O)Nc1ccc(-c2nccc(N3CCOC[C@@H]3C)n2)cc1 [Example 34, (S)-1-methyl-3-(4-(4-(3-methylmorpholino)pyrimidin-2-yl)phenyl)urea]	1 to 10 µM	1 to 10 µM	0.1 to 1 µM				≥ 10 µM	≥ 10 µM	≥ 10 µM	≥ 10 µM
CC(=O)NCCNC(=O)Nc1ccc(-c2cc(-c3cc(F)ccc3S(C)(=O)=O)nc(N3CCOC[C@@H]3C)n2)cc1 [Example 85, (S)—N-(2-(3-(4-(6-(5-fluoro-2-(methylsulfonyl)phenyl)-2-(3-methylmorpholino)pyrimidin-4-yl)phenyl)ureido)ethyl)acetamide]		1 to 10 µM		≥ 10 µM	≥ 10 µM	≥ 10 µM		≥ 10 µM		≥ 10 µM
